For one substance, Kd results are on record in article PMC4456216 (Nature structural & molecular biology, 2015).

The term Kd denotes the concentration at which binding is half-saturated.

The target of one test is CBP KIX domain. Kind of test: Isothermal titration calorimetry. More on the design: species or system mouse. As to conditions: read-out: Dissociation constant (KD), CBP KIX, ITC, 25°C, 10 mM MES pH 6.5, 50 mM NaCl, CBP KIX titrated into TAD, KD from a representative experiment with standard error for fit to one-site binding model (n = 2 or 3), nd = no detectable binding under experimental conditions. For orientation: In ITC the heat of successive injections is recorded.

A further test concerns the target CRY1 CC peptide. Kind of test: Isothermal titration calorimetry. As to conditions: read-out: Dissociation constant (KD), CRY1 CC, ITC, 25°C, 10 mM MES pH 6.5, 50 mM NaCl, CRY1 CC titrated into TAD, KD from a representative experiment with standard error for fit to one-site binding model (n = 2 or 3), nd = no detectable binding under experimental conditions. More on the design: species or system mouse.

With “BMAL1 619X: BMAL1 TAD truncation mutant that removed the C-terminal seven residues”, the Kd came to 4.44 ± 0.23 µM on CBP KIX domain and 19.7 ± 2.57 µM at CRY1 CC peptide.
